Assay results from article PMC8629109 (Journal of medicinal chemistry, 2020).
Where two headings read alike, the source gives them in different places. Each block holds one molecule with its values, some of them ahead of it.

Assays:
[1] = PAMPA high / low permeability standard, value as stated, ref not given; cited from earlier work
[2] = Plasma stability in rat serum; assay type: in vitro ADME; conditions: 37 °C
mGluR2 [3] = biological target: mGluR2 (Rattus norvegicus, UniProt P31421); assay: PET imaging and blocking studies in rat brain; assay type: in vivo, Sprague-Dawley rats; conditions: pretreatment 4 mg/kg i.v. 10 min before [11C]13, 10–30 min time window
[4] = Rat liver microsomal stability; assay type: in vitro ADME; conditions: Sprague-Dawley, liver microsomes, pH 7.4
recombinant human P-gp = recombinant human P-gp (Homo sapiens, UniProt P08183); assay: Pgp-Glo assay, P-gp ATPase activity; conditions: compared with basal and verapamil activities; test compound 200 μM
mGluR2 [5] = biological target: T1, mGluR2 (Homo sapiens, UniProt Q14416); assay: Competitive binding assay with [3H]JNJ-46281222 in mGluR2 transfected CHO cells
[6] = system: other mGluR subtypes (mGluR1, mGluR3, mGluR4, mGluR5, mGluR6, mGluR8); assay: Selectivity among mGluR subtypes; conditions: versus mGluR2
[7] = Solution stability in aqueous buffers; assay type: physicochemical
mGluR2 [8] = biological target: T1, mGluR2; assay: GloSensor cAMP biosensor assay, mGluR2 PAM activity; conditions: read-out: EC50, mGluR2 PAM activity; in the presence of EC20 amount of L-glutamate; intracellular cAMP

T1 sequence (Q14416 19-872): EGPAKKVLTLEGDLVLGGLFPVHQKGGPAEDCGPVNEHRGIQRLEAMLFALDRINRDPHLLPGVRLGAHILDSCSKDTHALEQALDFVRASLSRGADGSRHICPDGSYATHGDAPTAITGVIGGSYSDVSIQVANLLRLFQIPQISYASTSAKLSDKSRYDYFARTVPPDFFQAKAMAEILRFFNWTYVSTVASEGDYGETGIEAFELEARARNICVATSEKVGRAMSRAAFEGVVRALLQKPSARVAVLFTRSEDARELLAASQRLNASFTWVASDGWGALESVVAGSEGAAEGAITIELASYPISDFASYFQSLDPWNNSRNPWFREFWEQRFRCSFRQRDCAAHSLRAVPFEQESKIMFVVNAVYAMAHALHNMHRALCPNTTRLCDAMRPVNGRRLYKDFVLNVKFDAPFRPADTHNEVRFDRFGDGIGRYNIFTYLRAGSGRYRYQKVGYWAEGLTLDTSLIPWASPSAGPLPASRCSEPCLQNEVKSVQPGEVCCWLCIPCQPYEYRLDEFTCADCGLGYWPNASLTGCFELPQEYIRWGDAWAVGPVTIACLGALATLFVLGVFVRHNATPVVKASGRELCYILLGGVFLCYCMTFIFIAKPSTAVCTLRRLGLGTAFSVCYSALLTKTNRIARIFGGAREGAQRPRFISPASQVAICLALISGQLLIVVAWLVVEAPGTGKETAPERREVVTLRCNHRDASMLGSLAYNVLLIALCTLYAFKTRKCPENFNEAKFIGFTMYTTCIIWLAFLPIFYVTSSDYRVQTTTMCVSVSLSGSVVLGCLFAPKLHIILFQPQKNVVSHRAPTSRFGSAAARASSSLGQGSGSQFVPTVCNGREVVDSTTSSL
recombinant human P-gp, sequence (P08183 whole entry): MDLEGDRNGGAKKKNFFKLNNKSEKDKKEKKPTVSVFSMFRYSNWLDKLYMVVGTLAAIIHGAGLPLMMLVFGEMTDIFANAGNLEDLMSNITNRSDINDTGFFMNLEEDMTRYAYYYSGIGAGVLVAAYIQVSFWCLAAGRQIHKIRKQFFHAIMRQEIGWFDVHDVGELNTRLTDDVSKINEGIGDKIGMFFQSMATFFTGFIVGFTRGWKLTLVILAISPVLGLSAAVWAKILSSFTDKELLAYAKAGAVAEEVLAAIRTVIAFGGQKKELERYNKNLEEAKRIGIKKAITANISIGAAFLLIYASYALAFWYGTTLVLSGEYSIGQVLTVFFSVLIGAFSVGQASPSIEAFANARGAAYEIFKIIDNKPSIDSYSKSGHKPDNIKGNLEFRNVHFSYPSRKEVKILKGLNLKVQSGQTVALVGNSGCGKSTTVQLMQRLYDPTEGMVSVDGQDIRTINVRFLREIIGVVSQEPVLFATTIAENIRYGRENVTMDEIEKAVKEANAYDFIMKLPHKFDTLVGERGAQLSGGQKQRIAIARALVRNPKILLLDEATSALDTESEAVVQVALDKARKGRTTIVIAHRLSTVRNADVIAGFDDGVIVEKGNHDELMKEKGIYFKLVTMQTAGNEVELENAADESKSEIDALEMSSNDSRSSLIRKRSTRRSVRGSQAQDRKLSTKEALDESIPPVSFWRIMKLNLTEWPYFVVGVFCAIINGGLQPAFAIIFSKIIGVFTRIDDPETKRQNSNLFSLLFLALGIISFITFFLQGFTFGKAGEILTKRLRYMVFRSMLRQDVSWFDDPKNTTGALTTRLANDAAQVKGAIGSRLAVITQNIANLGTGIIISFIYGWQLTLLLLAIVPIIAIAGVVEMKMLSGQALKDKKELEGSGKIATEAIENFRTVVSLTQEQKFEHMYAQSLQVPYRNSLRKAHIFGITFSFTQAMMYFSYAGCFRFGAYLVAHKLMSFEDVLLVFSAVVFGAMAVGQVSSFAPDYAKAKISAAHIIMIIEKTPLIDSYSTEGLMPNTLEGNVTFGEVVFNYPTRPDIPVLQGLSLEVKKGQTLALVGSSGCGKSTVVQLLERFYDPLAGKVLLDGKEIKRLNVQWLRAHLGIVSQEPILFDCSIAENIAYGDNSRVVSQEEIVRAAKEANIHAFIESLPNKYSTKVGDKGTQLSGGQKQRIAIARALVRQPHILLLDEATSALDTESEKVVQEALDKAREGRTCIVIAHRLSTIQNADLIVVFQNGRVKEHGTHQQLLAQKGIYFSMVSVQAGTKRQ
mGluR2 (Rattus norvegicus, UniProt P31421), sequence (P31421 19-872): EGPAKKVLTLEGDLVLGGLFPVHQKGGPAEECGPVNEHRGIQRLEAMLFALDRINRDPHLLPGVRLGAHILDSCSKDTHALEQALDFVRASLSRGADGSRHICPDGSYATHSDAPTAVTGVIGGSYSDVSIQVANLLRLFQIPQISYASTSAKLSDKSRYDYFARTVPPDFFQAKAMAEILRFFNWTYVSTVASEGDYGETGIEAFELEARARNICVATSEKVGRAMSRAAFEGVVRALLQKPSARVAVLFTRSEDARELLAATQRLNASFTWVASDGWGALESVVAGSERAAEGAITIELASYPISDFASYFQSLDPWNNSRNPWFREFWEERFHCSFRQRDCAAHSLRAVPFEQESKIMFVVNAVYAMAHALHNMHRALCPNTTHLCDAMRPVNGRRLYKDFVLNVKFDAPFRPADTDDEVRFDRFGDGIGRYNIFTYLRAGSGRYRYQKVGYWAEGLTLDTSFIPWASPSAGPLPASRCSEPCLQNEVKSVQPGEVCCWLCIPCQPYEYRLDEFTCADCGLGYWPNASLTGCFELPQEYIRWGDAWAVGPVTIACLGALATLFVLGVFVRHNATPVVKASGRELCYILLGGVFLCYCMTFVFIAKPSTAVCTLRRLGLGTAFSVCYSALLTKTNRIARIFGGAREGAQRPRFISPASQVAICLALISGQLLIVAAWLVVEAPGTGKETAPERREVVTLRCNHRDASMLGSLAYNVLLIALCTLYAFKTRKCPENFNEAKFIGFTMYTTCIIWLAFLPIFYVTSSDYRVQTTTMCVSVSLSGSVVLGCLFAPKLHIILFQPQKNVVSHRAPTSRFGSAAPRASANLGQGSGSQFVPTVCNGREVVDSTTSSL

SMILES: Cn1c(=O)c2[nH]cnc2n(C)c1=O [theophylline]
Pe of quality control standard [1]: 0.12 ×10⁻⁶ cm/s

The plasma stability: the intact ± SEM at 120 min [2]: 43.2 ± 0.8%
SMILES: COc1ccc([C@@H]2Sc3ccccc3N(CCN(C)C)C(=O)[C@@H]2OC(C)=O)cc1 [Diltiazem, reference compound]

enhancement of radioactivity uptake in the different brain areas (mGluR2 [3]): 33–49% | half-life at 3 μM [4]: 1.24 h | P-gp ATPase activity (recombinant human P-gp): moderate | P-gp substrate assessment (recombinant human P-gp): not a P-gp substrate | IC50 (mGluR2 [5]): 7.6 ± 0.9 nM | The plasma stability: the intact ± SEM at 120 min [2]: 96.6 ± 2.1% | The solution stability: the intact ± SEM at 120 min ([7]; pH = 5.0, 37 °C): 95.3 ± 0.3% | The solution stability: the intact ± SEM at 120 min ([7]; pH = 7.4, 37 °C): 94.5 ± 0.4% | The solution stability: the intact ± SEM at 120 min ([7]; pH = 9.4, 37 °C): 96.1 ± 0.7%
SMILES: COc1cc(C(F)(F)F)ccc1C1CCN(Cc2nc3ncccc3n2C)CC1 [Compound 13, 2-((4-(2-Methoxy-4-(trifluoromethyl)phenyl)piperidin-1-yl)methyl)-1-methyl-1H-imidazo[4,5-b]pyridine]
selectivity against other mGluR subtypes [6]: > 100 fold

half-life at 3 μM [4]: 1.23 h | microsomal CLint at 3 μM [4]: 18.1 µL/min/mg | IC50 (mGluR2 [5]): 10.5 ± 0.5 nM | The plasma stability: the intact ± SEM at 120 min [2]: 89.2 ± 0.6%
SMILES: COc1cc(C(F)(F)F)ccc1C1CCN(Cc2nc3nccc4c3n2CCC4)CC1 [Compound 14, 2-((4-(2-Methoxy-4-(trifluoromethyl)phenyl)piperidin-1-yl)methyl)-5,6-dihydro-4H-imidazo [4,5,1-ij][1,7]naphthyridine]

half-life at 3 μM [4]: 0.07 h | microsomal CLint at 3 μM [4]: 317 µL/min/mg
SMILES: COc1cc(NC(=O)c2ccccn2)ccc1Cl [ML128, reference compound]

EC50 (mGluR2 [8]): 7800 nM | IC50 (mGluR2 [5]; read-out: IC50 ± SEM, mGluR2 transfected CHO cells, 10 nM [3H]JNJ-46281222): 10.5 ± 7.9 nM
SMILES: COc1cc(C(F)(F)F)ccc1OC[C@@H]1[C@H]2CN(Cc3nc4ncccc4n3C)C[C@@H]12 [Compound 15, 2-(((1R,5S,6R)-6-((2-methoxy-4-(trifluoromethyl)phenoxy)methyl)-3-azabicyclo[3.1.0]hexan-3-yl)methyl)-1-methyl-1H-imidazo[4,5-b]pyridine]

decrease of [11C]13 uptake in different brain areas (mGluR2 [3]): 28–37%
SMILES: Fc1ccc(N2CCN(Cc3ccn4c(CC5CC5)nnc4c3C(F)(F)F)CC2)c(F)c1 [Compound 17, 3-(Cyclopropylmethyl)-7-((4-(2,4-difluorophenyl)piperazin-1-yl)methyl)-8-(trifluoromethyl)[1,2,4]triazolo[4,3-a]pyridine, reference compound]
